For experiment [1], the system named is DLBCL, FL and T-cell lymphomas. The settings on record: monotherapy; cited from earlier work.
Experiment [2] concerns murine liver cancer cell line (BNL-1MEA). The experiment in a line: Orthotopic HCC (liver cancer) model. In kind it is in vivo, mice. Particulars: Compound A in combination with anti-CTLA-4 antibody; 22 days of treatment; FIG. 1. How it is done:
The effects of Compound A in combination with checkpoint inhibitors were investigated in an orthotopic HCC model. The orthotopic HCC model was established by injecting about 2×10^5 murine liver cancer cell line (BNL-1MEA) cells into the sub-capsular area of the left liver lobe of male BALB/c or SCID mice at age of 6-7 weeks. Mice were randomized to different treatment groups on day 6 after tumor implantation. Tumor volumes were measured after 22 days of treatment with Compound A alone, the checkpoint inhibitor alone, and Compound A in combination with the checkpoint inhibitor by using the following formula: volume [mm^3]=[width]^2×length×0.5. Tumor tissues were cut into small pieces, followed by incubation with HBSS containing collagenase type I (0.05 mg/ml), collagenase type IV (0.05 mg/ml), hyaluronidase (0.025 mg/ml), DNase (0.01 mg/ml) and soybean trypsin inhibitor (1 mg/ml) (all from Sigma-Aldrich) for 15 minutes. TILs were recovered by using Ficoll-Paque gradient and subjected to lymphocyte subpopulations analysis by flow cytometry (FACScan Caliber, Becton Dickinson; data processed by using the […] Software, BD Biosciences Pharmingen). CD4+ T cells, CD8+ T cells, NK cells, or NKT cells were determined by double staining with specific antibodies recognizing murine CD3 (clone 145-2C11), CD4 (cone GK1.5), CD8 (clone 53-6.7), or Pan-NK (clone DX5)(BD Biosciences Pharmingen). […]

The subject of experiment [3] is CD4+ T cells co-cultured with monocyte-derived DC. The experiment in a line: Mixed lymphocyte reaction (MLR) assay. Format: cell-based, human. Particulars: for IL-2 secretion compared to either single agent: 48 hours. How it is done:
In one exemplary study, monocytes were isolated from buffy coat using Easy Sep kit (StemCell Technologies) and cultured in RPMI supplemented with 10% FBS, IL-4, and GM-CSF for 7 days. On day 7, CD4+ T cells were isolated from leukopak using Easy Sep kit (StemCell Technologies) and co-cultured with Monocyte-derived DC (MDC) using a 10:1 ratio. Secreted IL-2 was quantified by ELISA at 48 hours and IFNγ was measured at 5 days. Throughout the experiment, surface marker expression was determined by flow cytometry. The results are shown in FIG. 3A (IL-2, 10 nM Compound A), FIG. 3B (IL-2, 100 nM Compound A), and FIG. 4A (IFNγ, 100 nM). Compound A in combination with nivolumab enhanced IL-2 and IFNγ secretion in the mixed lymphocyte reaction. In another exemplary study, monocytes were isolated from healthy donor buffy coat (Stem Cell Technologies) and cultured with 500 U/ml IL-4 and 250 U/ml GM-CSF (R&D Systems) for 7 days until the monocytes differentiated into dendritic cells (DC) by culturing with media containing a cocktail of IL-4 and GM-CSF for 7 days. On day 7, CD4^+ T cells from a different healthy donor were isolated from a leukopak (Stem Cell Technologies). The DC and T cells were mixed at a ratio of 1:10 and co-cultured for 5 days with Compound A and nivolumab (obtained from Blue Door Pharma) or anti-PD-L1 (anti-human CD274 (B7-H1) clone 29E.2A3, obtained from BioLegend, Cat #329716, lot B197650). Supernatants were harvested for IL-2 ELISA at 48 hours (R&D Systems) and for IFNγ ELISA at 5 days (Thermo Fisher Scientific). Monocytes, DC, T cells, and mixed lymphocytes were stained for flow cytometric analysis of CD14, HLA-DR, CD80, CD86, CD83, CD40, CD3, PD-1, PD-L1 surface expression markers throughout the duration of the experiment.

In experiment [4] the test system is CD4+ and CD8+ T cells and autologous CLL tumor cells. The experiment in a line: Immunological synapse bioassay in CLL cells. Format: cell-based, human.
Another experiment relates to SEB-stimulated PBMC. The experiment in a line: 5 day SEB-stimulated PBMC assay (IL-2 ELISA). In kind it is cell-based, human. Particulars: for IL-2 secretion compared to either single agent: 5 days. How it is done:
In one exemplary study, PBMC cells were pretreated with Compound A for 1 hour, then SEB/CPI were added for 5 days, IL-2 elisa on day 5. The results are shown in FIG. 2A (Compound A in combination with nivolumab), FIG. 2B (Compound A in combination with a surrogate commercial anti-PD-1 antibody from BioLegend), and FIG. 2C (Compound A in combination with a surrogate commercial anti-PD-L1 antibody from BioLegend).
In another exemplary study, Compound A treated PBMCs from healthy donors were stimulated with 10 pg/ml of SEB (ThermoFisher Scientific) followed by addition of nivolumab (obtained from Blue Door Pharma), anti-PD1 (anti-human CD279 clone EH12.2H7, obtained from BioLegend, Cat #329926, lot B194623), and anti-PD-L1 (anti-human CD274 (B7-H1) clone 29E.2A3, obtained from BioLegend, Cat #329716, lot B197650) blocking antibodies. After 5 days of incubation, supernatants were collected and an ELISA for IL-2 (BD Biosciences) was utilized to examine secreted IL-2.
(In general: In an ELISA, binding on a coated surface is turned into a signal by an enzyme label.)

For experiment [5], the system named is anti-CD3/CD28 stimulated PBMCs (NK, NKT, CD4+ and CD8+ T cell). The experiment in a line: Lymphocyte proliferation assay. Format: cell-based, human. Particulars: combination of Compound A with nivolumab, 6 days. As to the method:
To further explore immune activation resulting from the combination of Compound A and nivolumab, proliferation of immune cell subsets including NK, NKT, CD4+ and CD8+ T cell was examined. CellTrace Violet (Thermo Fisher) labeled PBMCs from healthy volunteers were treated with Compound A and nivolumab in combination or as single agent, and stimulated with soluble anti-CD3/CD28 (Stem Cell Technologies) for 6 days. Cells were collected and flow cytometry was performed to assay for surface expression of CD3, CD4, CD8, and CD56 (BD Biosciences). Dead cells were excluded by live/dead fixable stain (ThermoFisher Scientific). Prior to flow cytometry, CountBright beads (Thermo Fisher Scientific) were added to examine changes in absolute cell count.

Experiment [6] has as its system JHH4, a PD-L1 positive HCC cell line. The experiment in a line: PBMC mediated natural cytotoxicity against JHH4. In kind it is cell-based, human. The settings on record: p<0.05, FIG. 6.
Experiment [7] concerns LPS-stimulated hPBMC and human whole blood. The experiment in a line: Cytokine modulation in LPS-stimulated hPBMC and human whole blood. Format: cell-based. An excerpt: TNF-α is an inflammatory cytokine produced by macrophages and monocytes during acute inflammation. TNF-α is responsible for a diverse range of signaling events within cells. TNF-α may play a pathological role in cancer. Without being limited by theory, one of the biological effects exerted by Compound A is the reduction of synthesis of TNF-α. Compound A enhances the degradation of TNF-α mRNA.

A further experiment relates to advanced melanoma. The settings on record: patients with advanced melanoma; Hodi et al. 2010; cited from earlier work.
In experiment [8] the test system is acute myeloid leukemia (AML) at relapse. The settings on record: administered alone; cited from earlier work.
[9] abbreviates: Compound A 0.01-1 μM for 24 h, compared to vehicle treated cells, P<0.01.
[10] abbreviates: synapse with PD-L1+ tumor cells.

Take “nivolumab: human IgG4 anti-PD-1 monoclonal antibody”: in experiment [1], the antitumor activity entry is listed as “has shown antitumor activity”.

Consider `Cc1nc2cccc(N)c2c(=O)n1C1CCC(=O)NC1=O` (centres unmarked) [Compound A, 3-(5-amino-2-methyl-4-oxo-4H-quinazolin-3-yl)-piperidine-2,6-dione], for which the “anti-tumor efficacy in term of tumor volume” value in experiment [2] was “significant synergistic anti-tumor efficacy”. Also, the IL-2 secretion result in [3] (Compound A (10 nM, 100 nM) in combination with nivolumab, ELISA at 48 hours, FIG. 3A, 3B) is given as “enhanced”; in the experiment with SEB-stimulated PBMC (Compound A pretreatment 1 hour, then SEB/CPI (nivolumab, anti-PD-1 or anti-PD-L1) for 5 days, FIG. 2A-2C), “synergistically enhanced IL-2 secretion”. The IFNγ secretion entry in experiment [3] (Compound A (100 nM) in combination with nivolumab, 5 days, FIG. 4A) is reported as “enhanced”; in experiment [3] (Compound A with anti-PD-L1 between 0.1-10 μg/ml, 5 days of co-culture, FIG. 4C), “increased synergistically”; in [3] (Compound A with nivolumab between 0.1-10 μg/ml, 5 days of co-culture, FIG. 4B) it was “increased synergistically”. For the same molecule, the “IL-2 secretion compared to either single agent” value is reported as “synergistic IL-2 secretion” in experiment [3] (Compound A with anti-PD-L1, synergy at 1-10 μg/ml anti-PD-L1, FIG. 3D); “synergistic IL-2 secretion” in [3] (Compound A with nivolumab, synergy between 0.01-10 μg/ml nivolumab, FIG. 3C); “synergistic IL-2 secretion” with SEB-stimulated PBMC (40 nM Compound A with anti-PD-1 blocking antibody, synergy above 1 μg/ml anti-PD-1, FIG. 2E); “synergistic IL-2 secretion” in the experiment on SEB-stimulated PBMC (40 nM Compound A with anti-PD-L1 blocking antibody, synergy above 10 μg/ml anti-PD-L1, FIG. 2F); “synergistic IL-2 secretion” with SEB-stimulated PBMC (40 nM Compound A with nivolumab, synergy between 0.1-100 μg/ml nivolumab, FIG. 2D). Further, in experiment [4] (setting [9]), the “formation of F-actin immune synapses (area size)” value is “increased”. In experiment [4] (setting [9]), the “number of T cells recognizing tumor cells (% conjugation formation)” value is listed as “dramatically enhanced”. The “T cell synapse activity compared to immunotherapy alone” value in experiment [4] (Compound A with anti-CTLA-4 blocking antibody, FIG. 7A) is listed as “increased T cell synapse activity”; in [4] (Compound A with anti-PD-1 blocking antibody, FIG. 7B) it was “increased T cell synapse activity”; in experiment [4] (Compound A with anti-PD-L1 blocking antibody, FIG. 7C) it was “increased T cell synapse activity”. Moreover, the “synapse strength (total fluorescence intensity of F-actin per T cell:APC conjugate)” value in experiment [4] (P<0.01) was “increased significantly”. In addition, the “recruitment of inducible co-stimulator (ICOS) to the synapse” value in [4] (dose-dependent, P<0.01) is reported as “increased recruitment”. Also, the “polarized expression of CTLA-4 at the synapse” value in experiment [4] (setting [10]) is listed as “increased polarized expression”. Besides, the “polarized expression of PD-1 at the synapse” value in experiment [4] (setting [10]) is “increased polarized expression”. In addition, the “proliferation in NK cells (absolute cell numbers)” value in experiment [5] (FIG. 5A) is on record as “enhanced proliferation”. The “proliferation in NKT cells (absolute cell numbers)” value in experiment [5] (FIG. 5B) is “enhanced proliferation”. The “proliferation in CD4+ T-cells (absolute cell numbers)” value in [5] (FIG. 5C) is listed as “but not CD4+ T-cells”. In addition, in experiment [5] (FIG. 5D), the “proliferation in CD8+ T-cells (absolute cell numbers)” value is “enhanced proliferation”. The “PBMC-mediated cell killing of HCC cell line JHH4” value in experiment [6] (50 nM Compound A combined with 1 μg/ml anti-PD-L1) and in experiment [6] (50 nM Compound A combined with 1-10 μg/ml nivolumab) was “significantly enhanced” in each case. The IL-1β inhibition entry in experiment [7] was “potently inhibits”. For the same molecule, the IL-10 stimulation entry in experiment [7] is on record as “stimulates”. Also, in experiment [7], the TNF-α inhibition result is “markedly inhibits”.

For “ipilimumab: fully human monoclonal IgG antibody that binds to CTLA-4”, the overall survival result with advanced melanoma was “overall survival benefit”.

Turning to “CT-011: anti-PD-1 antibody, a humanized antibody”, the “response in treating AML at relapse” value in experiment [8] is “failed to show response”.

Source of the values: US10973822B2, “Combination therapy for treatment of hematological cancers and solid tumors” (Celgene Corporation, priority 2015, dated 2021).
